In patent US4752614A, “Pharmaceutical compositions of tellerium and selenium compounds for the induction of in vivo and in vitro production of cytokines” (Bar-Ilan University, priority 1987, dated 1988):
Values joined by “and” are separate entries in the source; they are usually repeats but may differ in a detail not shown here. Identical values can stand only once. “Also recorded” adds a separate entry of the source.

Assays:
IL-2 [1] = assay: IL-2 secretion by mouse spleen cells in vitro, CTLD proliferation (Example 17); assay type: cell-based, male Balb/c mice; details: 24 hours, 1 μg/ml of cell mixture
Procedure: The compounds listed below were tested in vitro at various concentrations that ranged from 10 μg/ml cells to 1×10^-6 μg/ml of cell mixtures. Cells were obtained from spleens of male Balb/c mice 6-8 weeks of age. Spleens were pushed through a stainless steel 60 mesh strainer to separate cells.

WNV = WNV yield in mouse macrophage cultures (Example 23); assay type: cell-based, ICR mouse macrophage; details: 72 h; for Virus Yield: preliminary
Procedure: Varying amounts of the compound of Example 1 (5 μg, 1 μg, 0.1 μg) were incubated with a monolayer of mouse macrophages for 24 h. […] All cultures were then infected with 10^4 PFU/plate. After 72 h incubation the supernatants were collected and the virus was titrated against Vera cells.

West Nile virus (WNV) = assay: West Nile virus infection in mice (Example 22); assay type: in vivo, ICR mice; details: for # Alive/Total Animals: Table A; for # Alive/Total Animals / # Alive/Total: preliminary; for # Alive/Total: Table B
Procedure: The compounds may be used as anti-bacterial or anti-viral agents in plants or in animals. Virus infections such as West Nile virus infections in mice are susceptible to the compound of the Example 1 at a dose of 10 μg/day/mouse. Plant bacterial infections such as crown gall caused by Agrobacterium tumefaciens may be treated or prevented by the application of a 0.1% solution of compounds of the invention.
The effect of the compound of Example 1 on an infection with West Nile virus (WNV) was determined. WNV is a toga virus of the flavivirus group, a positive single stranded RNA virus, which when injected IP to mice usually kills them within 5-8 days as a result of extensive damage to the central nervous system. For this study ICR mice (3 wks of age) were injected IP with the virus at the concentration of 10^3 or 10^4 LD 50 units/mouse. Injections of 10 μg/0.2 ml PBS/mouse of the compound of Ex. 1 were given on day -1 (one day prior to injection of virus) and 6 days after injection of virus.
In a second experiment, mice were injected with 10^3 IPLD50 virus and received injections of the compound of Example 1 (1 μg/0.2 ml PBS/mouse) on days -1, 1, 2 and 4.

[2] = test system: experimentally induced tumor; assay: In vivo effect on methylcholanthrene (MCA) induced tumor (Example 5); parameters: species or system C3 Heb mice; details: 10 μg IP
Procedure: A solution of 0.2% of methylcholanthrene (MCA, Sigma, USA) was prepared by dissolving 2 mg of the carcinogen in 1.0 ml of olive oil (Ref: Petra, et al., Cancer 19:302, 1961) with continuous shaking at 37° C. for 30 minutes. Six to eight week old C3 Heb mice were injected with 0.6 mg MCA/0.3 ml of solvent/mouse subcutaneously in the rear right thigh. After 21-30 days the induced tumor was surgically removed and pushed through 60 mesh stainless nets to obtain isolated cells. These cells were then further injected subcuteneously into the rear right thigh of C3 Heb mice 5 to 8 weeks of age, at a concentration of 10^6 cells/0.3 ml PBS/mouse/hypodermic needle 25 gauge, 5/8" to further induce tumor formation.
Five days after injection of the tumor cells, a palpable tumor was induced. The animals were thereafter treated as follows:
(a) control (0.2 ml 40% DMSO 60% PBS, IP 1 day after the induced tumor was palpable)
(b) 10 μg of compound of Example 1, IP to 5 mice (in 0.2 ml 40% DMSO 60% PBS, 3 days after the induced tumor was palpable and a second injection of 10 μg of compound in the same solvent was administered 5 days after the first injection to 3 of the 5 mice.
All animals expired 35 to 38 days after the initial innoculation.

IL-2 [3] = assay: Oral administration in drinking water, IL-2 content of spleen cell supernatants (Example 13); assay type: in vivo, male Balb-C mice; details: 1 μg/ml H2O, 4 days
Procedure: The water solution was prepared by dissolving the compounds in PBS at a concentration of 50 μg/ml PBS and diluting the resulting solution to the desired concentration. The compounds were administered over a 4 day period. The exact amount of liquid intake was recorded daily. […] The cells were incubated at a concentration of 10^7 cells/ml in enriched RPMI containing 2 μg/ml of con-A for 24 hours at 37° C. The supernatants were collected and tested for IL-2 content.

CSF = assay: In vitro induction of colony stimulating factor (CSF) from mouse spleen cells (Example 7); assay type: cell-based, male Balb-c mice
Procedure: (§1) This example describes the in vitro making of IL-2 and CSF from mouse spleen cells using the compound of Example 1 as the extrinsic stimulating agent.
(§2) Spleens were removed from 15, male Balb-c mice 6 to 8 weeks of age. The spleen cells were pushed through stainless steel 60 mesh (U.S. standard) nets resting in 5 mm Petri dishes containing PBS in order to separate the cells. The cells were then collected into centrifuge tubes and spun at 1000 rpm for 10 minutes. The supernatant was discarded and cells were treated with 5 ml of hypotonic buffer (0.15M NH4 Cl; 0.01M KHCO3 dissolved in double distilled water, pH 7.2) for exactly two minutes. Thereafter, PBS was added to the cells and the test tubes were centrifuged for 10 minutes at 1000 rpm. The cells were rinsed twice and counted in a heamocytometer using trypan blue to test for viability. The cells were brought to a concentration of 10^7 viable cells/ml. The cells were contacted with varying amounts of the compound of Example 1 in 1 ml of 40% DMSO 60% PBS.

IL-2 [4] = assay: In vitro induction of IL-2 from mouse spleen cells (Example 7); assay type: cell-based, male Balb-c mice
Procedure: as §1, §2

In the case of `Cl[TeH]1(Cl)(Cl)OCCO1` [Example 1], the “Spleen Cells (IL-2 activity)” value (IL-2 [1]) is reported as 14,600 cpm, the activation at 1 µg/mL (IL-2 [1]; Mus musculus, read-out: Spleen Cells, percent in parentheses (increase over control)) is reported as 472% and the “reduction of virus yield” value (WNV; 0.1 μg) is reported as “ten”. The “Virus Yield” value (WNV; 0.1 μg/plate) was 2 × 10^3 PFU/ml, the “reduction of virus yield” value (WNV; 1 μg) was 40 fold and the “Virus Yield” value (WNV; μg/plate (text: 1 μg)) was 5 × 10^2 PFU/ml. The “susceptibility of West Nile virus infections in mice” value (West Nile virus (WNV); 10 μg/day/mouse) was “susceptible”, the “survival beyond day 8” value (West Nile virus (WNV); 10^3 IPLD50, 1 μg/mouse days -1, 1, 2 and 4) was “Two out of the remaining three survived an additional 8 days; also recorded: the third remained alive without any manifestations of clinical symptoms” and the “# Alive/Total Animals” value (West Nile virus (WNV); 10^3 LD50 virus, 10 μg/mouse days -1 and 6, after 8 days) was 3/5. The “# Alive/Total Animals” value (West Nile virus (WNV); 10^4 LD50 virus, 10 μg/mouse days -1 and 6, after 8 days) was 3/5, the “# Alive/Total Animals” value (West Nile virus (WNV); no virus (0), 10 μg/mouse days -1 and 6) was 6/6 and the “# Alive/Total” value (West Nile virus (WNV); 10^3 IPLD50, 1 μg/mouse days -1, 1, 2 and 4, day 8) was 3/5. For the same molecule, the “# Alive/Total” value (West Nile virus (WNV); compound alone, 1 μg/mouse days -1, 1, 2 and 4, day 8) was 5/5, the “Vol. of Tumor (13 days)” value ([2]; day 3, individual mouse) was 0.77 and 1.66 and the “Vol. of Tumor (13 days)” value ([2]; day 3 and 5, individual mouse) was 0.7 and 0.52 and 0.31. For the same molecule, the IL-2 content (IL-2 [3]) was 49179 cpm, the “Percent increase as compared to control” value (IL-2 [3]) was “+50%” and the CSF (CSF; 5 pg) was 140 colonies/dish. The CSF (CSF; 50 pg) was 260 colonies/dish, the CSF (CSF; 500 pg) was 175 colonies/dish and the CSF (CSF; 5 ng) was 120 colonies/dish. It also gave a CSF (CSF; 50 ng) of 75 colonies/dish, a CSF (CSF; 500 ng) of 25 colonies/dish and a CSF (CSF; 5 μg) of 5 colonies/dish. For the same molecule, the CSF (CSF; 50 μg) was 2 colonies/dish, the IL-2 (IL-2 [4]; 5 pg) was 12,000 cpm and the IL-2 (IL-2 [4]; 50 pg) was 38,000 cpm. For the same molecule, the IL-2 (IL-2 [4]; 500 pg) was 30,000 cpm, the IL-2 (IL-2 [4]; 5 ng) was 15,000 cpm and the IL-2 (IL-2 [4]; 50 ng) was 6,000 cpm. For the same molecule, the IL-2 (IL-2 [4]; 500 ng) was 5,000 cpm, the IL-2 (IL-2 [4]; 5 μg) was 5,000 cpm and the IL-2 (IL-2 [4]; 50 μg) was 5,000 cpm.
